Here are results for 5 compounds from patent US5302602A, “Tricyclic thromboxane A2 antagonists” (Kyowa Hakko Kogyo Co., Ltd., priority 1987, dated 1994).

Where two headings read alike, the source gives them in different places.

In series [1] the test system is homologous passive cutaneous anaphylaxis (PCA). Put plainly: Antiallergic activity test: homologous passive cutaneous anaphylaxis (PCA) test for 48 hours using rats. The series is classed as in vivo, rat (Wistar strain, male). Particulars: Rattus norvegicus, po, minimum dose with at least one of 3 rats showing PCA inhibition rate 50% or more, read-out: Antiallergic Activity (MED), minimum effective dose. The protocol: Antiallergic activity was examined in accordance with the passive cutaneous anaphylaxis (PCA) test using rats. As test animals, Wistar strain male rats weighing 180 to 220 g were used to collect antiserum and for the PCA test, Wistar strain male rats weighing 120 to 140 g were used.
Anti-EWA rat serum was prepared according to the method of Stotland and Share [Can. J. Physiol. Pharmacol., 52, 1114 (1974)]. That is, 1 mg of EWA was mixed with 20 mg of aluminum hydroxide gel and 0.5 ml of pertussis-diphtberia-tetanus mixed vaccine. The mixture was subcutaneously administered to the rat paw in 4 portions. Fourteen days after, blood was collected from the carotid artery and the serum was isolated and stored in a state frozen at -80° C. Titer of this antiserum to homologous PCA for 48 hours was 1:32.
Three rats were used per group. After the hair at the back was cut, 0.05 ml each of anti-EWA rat serum diluted to 8-fold with physiological saline was intracutaneously injected to each rat at the back in 2 places to passively sensitize the rat. A test compound or its solution (physiological saline solution or CMC solution) was orally administered 47 hours after and 0.5 ml/100 g of 1% Evans Blue physiological saline containing 2 mg of antigen EWA was then intravenously administered to the tail vein an hour after the administration. Thirty minutes later, the animal was bled to death. The skin was peeled off and a leaked dye amount at the blue dyed portion was measured according to the method of Katayama et al. [Microbiol. Immunol., 22, 89 (1978)]. That is, the blue dyed portion was cut off with scissors, put into a test tube charged with 1 ml of 1 N potassium hydroxide and incubated at 37° C. for 24 hours. After 9 ml of a mixture of 0.6 N phosphate:acetone (5:13) was added to the system, the mixture was shaken followed by centrifugation at 2500 rpm for 10 minutes. The absorbancy of the supernatant at 620 nm was measured and the leaked dye amount was quantitatively determined by comparison with a calibration curve previously prepared. A value of one rat was obtained from a mean value of the two portions and an inhibition rate-of each rat was calculated according to the following equation. [formula]
The case showing that the inhibition rate is 50% or more is judged to be positive in the PCA inhibition activity and the minimum dose in which at least one out of 3 rats was recognized to be positive was defined as the minimum effective dose (MED) of the test compound.

For series [2], the system named is guinea pig platelets (TXA2/prostaglandin H2 receptor). The series is described as follows: Test on anti-platelet activity (TXA2 antagonizing test): inhibition of U-46619-induced platelet aggregation. The series is classed as cell-based. The note with it: Cavia porcellus, 0.05 h; minimum concentration inhibiting U-46619 (0.5-1 μM)-induced platelet aggregation by 30% or more; guinea pig PRP; read-out: TXA2 Antagonizing Activity (MEC), minimum effective concentration. The protocol: Using guinea pig platelets influence of the compounds in accordance with the present invention on platelet aggregation induced by U-46619 (9,11-dideoxy-9α,11a-methanoepoxyprostaglandin F2 α; manufactured by Cayman Chemica Co., Ltd.) which is a TXA2 /prostaglandin H2 receptor stimulant was examined.
Male guinea pig (Hartley strain; body weight, 300 to 600 g) was anesthesized by intraperitoneal administration of sodium pentobarbital (30 mg/kg) and blood was collected from the descending aorta of the abdomen with a 1/10 volume of sodium citrate. By centrifugation (KC-70: manufactured by Kubota Co., Ltd.) at 800 rpm for 10 minutes, platelet rich plasma (PRP) was collected. Platelet aggregation induced by U-46619 (0.5-1 μM) was determined by photometry [Born, G.V.R. et al., Nature (London), 194, 927-929 (1962)]. A test compound was pretreated 3 minutes prior to aggregation induction and ability of inhibiting aggregation was measured. The minimum concentration for inhibiting platelet aggregation by 30% or more was defined as the minimum effective concentration (MEC) of the test compound.

Series [3] relates to mice. The series is described as follows: Acute toxicity test. The series is classed as in vivo. The note with it: mortality observed for seven days. The protocol: Using three dd strain male mice weighing 20±1 g, a test compound was orally (po; 300 mg/kg) or intraperitoneally (ip; 100 mg/kg) administered. MLD (the minimum lethal dose) was determined by observing the mortality for seven days after administration.

In series [4] the target is T1, histamine H1 receptor (Cavia porcellus, UniProt P31389).
T1 construct: from tissue; host or cells: guinea pig cerebellum membranes
T1 sequence (P31389 whole entry): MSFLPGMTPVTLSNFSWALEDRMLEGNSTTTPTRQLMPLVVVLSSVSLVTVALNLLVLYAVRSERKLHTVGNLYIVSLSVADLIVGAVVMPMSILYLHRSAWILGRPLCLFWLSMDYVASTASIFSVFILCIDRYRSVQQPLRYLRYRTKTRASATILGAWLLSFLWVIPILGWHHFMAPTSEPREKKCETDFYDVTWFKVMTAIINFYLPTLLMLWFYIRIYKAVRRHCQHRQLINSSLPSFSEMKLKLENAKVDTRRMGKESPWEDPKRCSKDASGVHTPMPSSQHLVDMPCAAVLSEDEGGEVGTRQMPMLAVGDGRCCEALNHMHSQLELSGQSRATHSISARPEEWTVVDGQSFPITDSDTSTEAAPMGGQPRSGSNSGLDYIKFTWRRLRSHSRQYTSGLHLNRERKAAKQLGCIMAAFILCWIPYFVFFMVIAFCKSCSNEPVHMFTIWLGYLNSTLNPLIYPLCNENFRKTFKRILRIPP
The series is described as follows: Binding study using 3H-pyrilamine (histamine H1 receptor binding). More on the design: species or system guinea pig. The note with it: read-out: (%) Inhibition (3H-pyrilamine binding). The protocol: Receptor binding was determined by the method of chang et al. [J. Neurochem., 32, 1953 (1979)].
The cerebellum of guinea pig was suspended in a 40-fold amount (V/W) of chilled 50 mM phosphate buffer (pH 7.5) with Polytron Homogenizer (Kinematica Co., Ltd.). The suspension was centrifuged (35,500×g, 10 minutes). The resulting precipitates were resuspended in an equal amount of fresh buffer followed by centrifugation. A 100-fold amount (V/W) of chilled buffer was added to the final precipitates.
To 1 ml of the membrane suspension adjusted as described above were added 50 μl of tritium-labeled pyrilamine (^3 H-pyrilamine; NEN Co., Ltd.) and 50 μl of a test compound. The mixture was allowed to stand at 25° C. for 30 minutes, 4 ml of chilled buffer was added thereto. The mixture was rapidly filtered through a glass fiber filter (GF/C; Whatman). The filter paper was further washed three times with 5 ml of buffer. Hereafter procedures were performed in a manner similar to the TXA2 receptor binding test to determine radioactivity.
An inhibitory activity of the test compound against H1 receptor was calculated by the following equation. [formula]
Amount of the total binding is an amount of ^3 H-pyrilamine-bound radioactivity in the absence of a test compound.
The amount of non-specific binding is an amount of ^3 H-pyrilamine-bound radioactivity in the presence of 3 μM Astemizole (manufactured by Janesen Pharmaceutics).
The amount bound in the presence of a test compound is an amount of ^3 H-pyrilamine-bound radioactivity in the presence of a test compound in various concentrations.

Series [5] has as its target T2, TXA2 receptor (Cavia porcellus, UniProt A0A286Y4I8).
T2 construct: To a washed platelet suspension (1×10^8 platelets) of guinea pig; endogenous in cells; host or cells: washed guinea pig platelets
T2 sequence (A0A286Y4I8 1-347): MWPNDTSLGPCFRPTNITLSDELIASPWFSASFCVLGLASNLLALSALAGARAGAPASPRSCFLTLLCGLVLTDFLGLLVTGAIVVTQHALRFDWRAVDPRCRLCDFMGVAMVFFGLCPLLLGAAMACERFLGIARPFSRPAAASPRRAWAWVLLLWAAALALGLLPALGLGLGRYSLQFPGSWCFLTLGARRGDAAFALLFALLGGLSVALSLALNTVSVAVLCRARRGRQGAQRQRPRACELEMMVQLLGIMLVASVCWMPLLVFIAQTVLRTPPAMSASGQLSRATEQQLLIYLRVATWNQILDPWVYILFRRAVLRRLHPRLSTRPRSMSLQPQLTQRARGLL
Put plainly: Binding study using 3H-U46619 (TXA2 receptor binding activities test). More on the design: species or system guinea pig. Particulars: 20 min; test compound 1 μM; 12 nM 3H-U46619; washed guinea pig platelets; 37° C., 20 minutes; read-out: % Inhibition (3H-U46619 binding). The procedure: Receptor binding was determined by a modified method of Kattelman et al. (Thrombosis Research, 41, 471 (1986)].
To a washed platelet suspension (1×10^8 platelets) of guinea pig were added 12 nM of tritium-labeled U46619 (^3 H-U46619; NEN Co., Ltd.) and a test compound (final concentration: 1 μM) solution. After keeping at 37° C. for 20 minutes, the mixture was rapidly filtered through a glass fiber filter paper (GF/C; Whatman). Immediately, the filter paper was washed 5 times with 3 ml of ice-cold 50 mM Tris-hydroxymethylaminomethane buffer (containing 100 mM sodium chloride). The glass fiber filter was transferred to a vial and a scintillator (Ex-H; manufactured by Wako Pure Chemical Industries Co., Ltd.) was added thereto. The radioactivity was determined with a liquid scintillation counter.
It is already known that ^3 H-U46619 is capable of binding with TXA2 receptor (see the publication supra). An inhibitory activity of the test compound against this binding means an ability of binding with the TXA2 receptor. It is also known that a good relationship exists between this binding activity and the anti-platelet activity (TXA2 antagonizing test).
An inhibitory activity (binding activity) of the test compound was calculated by the following equation. [formula]
Amount of the total binding is an amount of ^3 H-U46619-bound radioactivity in the absence of a test compound.
The amount of non-specific binding is used to mean an amount of ^3 H-U46619-bound radioactivity in the presence of 10 μM U-46619.
The amount bound in the presence of a test compound is an amount of ^3 H-U46619-bound radioactivity in the presence of a test compound in various concentrations.

On to `O=C(O)COc1ccc(CCNS(=O)(=O)c2ccccc2)cc1` [BM13177, reference compound], for which the minimal effective dose in series [1] is over 100 mg/kg. Also, the minimal effective concentration in series [2] amounted to 3 µg/mL. Further, the “Acute Toxicity (MLD), minimum lethal dose” value (shortened to “Acute Toxicity (MLD)”) is reported as over 100 mg/kg in series [3] (ip) and over 300 mg/kg in series [3] (po). Also, the inhibition (in general, the percentage by which the read-out fell short of the control) at 1 µM in series [4] (test compound 10^-6 M, guinea pig cerebellum membranes, 25° C., 30 minutes) came to 0%; in series [5] it was 31%.
Turning to `O=C(O)c1ccc2c(c1)C(SCCN1CCN(Cc3ccccc3)CC1)c1ccccc1CO2` (stereo not drawn) [Compound 11b, 11-[2-(4-Benzyl-1-piperazinyl)ethyl]thio-6,11-dihydrodibenz[b,e]oxepin-2-carboxylic acid], in series [1], the minimal effective dose was found to be 10 mg/kg. Also, the minimal effective concentration in series [2] was found to be 1 µg/mL. For the same compound, the “Acute Toxicity (MLD)” value in series [3] (ip) is given as over 100 mg/kg; in series [3] (po) it was over 300 mg/kg. Besides, the inhibition at 1 µM came out at 95% in series [4] and 70% in series [5].
As to `O=C(O)c1ccc2c(c1)C(SCCN1CCN(c3ccccc3)CC1)c1ccccc1CO2` (stereo not drawn) [Compound 1b, 11-[2-(4-Phenyl-1-piperazinyl)ethyl]thio-6,11-dihydrodibenz[b,e]oxepin-2-carboxylic acid], in series [1], the minimal effective dose stood at 10 mg/kg. Moreover, the minimal effective concentration in series [2] was 3 µg/mL. The figures for the “Acute Toxicity (MLD)” value in series [3] (ip) and in series [3] (po) were over 100 mg/kg and over 300 mg/kg, respectively. Further, the inhibition at 1 µM in series [4] came to 68%.
In the case of `O=C(O)c1ccc2c(c1)C(SCCN1CCC(Cc3ccccc3)CC1)c1ccccc1CO2` (stereo not drawn) [Compound 38b], the minimal effective dose in series [1] was 1 mg/kg. The minimal effective concentration in series [2] came out at 1 µg/mL. The results for the inhibition at 1 µM in series [4] and in series [5] were 92% and 81%, respectively.
`O=C(O)c1ccc2c(c1)C(SCCN1CCN(S(=O)(=O)c3cccs3)CC1)c1ccccc1CO2` (stereo not drawn) [Compound 25b, 11-[2-[4-(2-Thienylsulfonyl)-1-piperazinyl]ethyl]thio-6,11-dihydrodibenz[b,e]oxepin-2-carboxylic acid.0.5 isopropanol.dihydrate]: the minimal effective dose in series [1] stood at 10 mg/kg. Besides, the minimal effective concentration in series [2] came to 3 µg/mL. Besides, the “Acute Toxicity (MLD)” value is over 100 mg/kg in series [3] (ip) and over 300 mg/kg in series [3] (po). In addition, the values for the inhibition at 1 µM in series [4] and in series [5] were 95% and 78%, respectively.
